# Results published in ChEMBL document CHEMBL2346639, “A new dehydroabietic acid-based arylamine fluorescent probe: Synthesis, structure analysis and in vitro biodiagnose function” (Bioorg Med Chem Lett, 2013).
# Tests used:
# [1] = Cytotoxicity against human SMMC7721 cells assessed as cell survival at 1 uM after 24 hrs by MTT assay relative to control; type: cell-based; settings: SMMC-7721 cells, read-out: Survival
# [2] = Cellular uptake in human A549 cells cytoplasm after 4 hrs by fluorescence microscopic analysis; type: ADME, cell-based; settings: a549, 4 h
# [3] = Cellular uptake in human SGC7901 cells cytoplasm after 4 hrs by fluorescence microscopic analysis; type: ADME, cell-based; settings: sgc-7901, 4 h
# [4] = Photostability of the compound in water at 1 x 10^-6 M measured after UV-irradiation by fluorescence spectra analysis; type: physicochemical; settings: buffer, 1 µM
# [5] = Photostability of the compound in DMSO at 1 x 10^-6 M measured after UV-irradiation by fluorescence spectra analysis; type: physicochemical; settings: 1 µM
# [6] = Cellular uptake in human HeLa cells cytoplasm after 4 hrs by fluorescence microscopic analysis; type: ADME, cell-based
# [7] = test system: A549; test: Cellular uptake in human A549 cells after 4 hrs by fluorescence microscopic analysis; type: ADME, cell-based; settings: a549, 4 h
# [8] = Photostability of the compound in methanol at 1 x 10^-6 M measured after UV-irradiation by fluorescence spectra analysis; type: physicochemical; settings: 1 µM
# [9] = Cytotoxicity against human HeLa cells assessed as cell survival at 1 uM after 24 hrs by MTT assay relative to control; type: cell-based; settings: read-out: Survival
# [10] = Photostability of the compound in water at 10 uM measured 30 mins after UV-irradiation by fluorescence spectra analysis; type: physicochemical; settings: buffer, 0.5 h
# [11] = test system: A549; test: Cytotoxicity against human A549 cells assessed as effect on cell survival at 5 to 25 uM after 24 hrs by MTT assay; type: cell-based; settings: a549, 24 h
# [12] = Cytotoxicity against human SGC7901 cells assessed as cell survival at 1 uM after 24 hrs by MTT assay relative to control; type: cell-based; settings: SGC-7901 cells, read-out: Survival
# [13] = test system: SGC-7901; test: Cellular uptake in human SGC7901 cells after 4 hrs by fluorescence microscopic analysis; type: ADME, cell-based; settings: sgc-7901, 4 h
# [14] = Cellular uptake in human SMMC7721 cells cytoplasm after 4 hrs by fluorescence microscopic analysis; type: ADME, cell-based; settings: smmc-7721, 4 h
# [15] = test system: HeLa; test: Cellular uptake in human HeLa cells after 4 hrs by fluorescence microscopic analysis; type: ADME, cell-based
# [16] = Solubility of the compound in water; type: physicochemical
# [17] = Cytotoxicity against human A549 cells assessed as cell survival at 1 uM after 24 hrs by MTT assay relative to control; type: cell-based; settings: read-out: Survival
# [18] = test system: SMMC-7721; test: Cellular uptake in human SMMC7721 cells after 4 hrs by fluorescence microscopic analysis; type: ADME, cell-based; settings: smmc-7721, 4 h
# [19] = Photostability of the compound in dichloromethane at 1 x 10^-6 M measured after UV-irradiation by fluorescence spectra analysis; type: physicochemical; settings: 1 µM
smiles,measurement,setting,value
COC(=O)[C@]1(C)CCC[C@]2(C)c3ccc(Nc4cccc5ccccc45)cc3CC[C@@H]12,"viability at 24 h, 1 µM",[1],96%
same,Drug uptake,[2],Active
same,Drug uptake,[3],Active
same,Stability,[4],Stable
same,Stability,[5],Unstable
same,Drug uptake,[6],Active
same,Drug uptake,[7],Active
same,Stability,[8],Unstable
same,"viability at 24 h, 1 µM",[9],97.3%
same,Stability,[10],Stable
same,Activity,[11],Non-toxic
same,"viability at 24 h, 1 µM",[12],94.5%
same,Drug uptake,[13],Active
same,Drug uptake,[14],Active
same,Drug uptake,[15],Active
same,solubility,[16],> 15 µM
same,"viability at 24 h, 1 µM",[17],93.1%
same,Drug uptake,[18],Active
same,Stability,[19],Unstable
